# Patent US8058286B2, “Method for therapy of diarrhea-predominant irritable bowel disorders” (Toray Industries, Inc., priority 2005, dated 2011)
# Where a name gives a salt, the structure may show the parent alone.
# System: Rat Defecation Models Induced by Restraint Stress
# Assay: Rat defecation models induced by restraint stress (number of feces within 60 minutes)
# Format: in vivo
# Text: The fact that the morphinan derivatives having the nitrogen-containing cyclic substituent, represented by Formula (I) and the pharmaceutically acceptable acid addition salts thereof are effective for functional bowel disorders may be confirmed by showing inhibitory action against transportation ability of large intestine, which ability has been increased by applying restraint stress. The inhibitory action against the increased transportation ability of large intestine may be confirmed by a reported method (Miyata K et. al., J. Pharmacol. Exp. Ther., 261, 297-303, 1992. or Kobayashi S et. al., Jpn. J. Pharmacol., 86, 281-8, 2001.), but the method is not restricted thereto.
# A solvent or the Compound 1 was subcutaneously administered, and 15 minutes later, application of restraint stress was started. The number of feces within 60 minutes from the beginning of the application of the stress was counted and the effect was evaluated (one group consisted of 6 rats). The rats in a control group to which the restraint stress was not applied were merely moved to a new plastic cage.
# In the group to which 5 w/v % xylitol solution containing 0.1 w/v % citric acid used as the solvent alone was administered, the rats to which the restraint stress was not applied defecated 1.0 feces on average within the 60 minutes, while the rats to which the restraint stress was applied defecated 6.5 feces on average, so that increase in the number of feces caused by the stress was observed.
# Compounds 10, 11, 12 and 13 were evaluated in the same manner as in Example 1. In the group to which 5 w/v % xylitol solution containing 0.1 w/v % citric acid used as the solvent alone was administered, the rats to which the restraint stress was applied defecated 7.5 feces on average within the 60 minutes. The number of feces was decreased to 0.3 on average when 0.3 mg/kg of Compound 10 was administered, decreased to 4.2 on average when 1 mg/kg of Compound 11 was administered, decreased to 3.7 on average when 0.3 mg/kg of Compound 12 was administered, and decreased to 4.1 on average when 10 mg/kg of Compound 13 was administered.
# [1] = 0.3 mg/kg subcutaneous 15 minutes before restraint stress, solvent group with stress 7.5
compound,measurement,setting,value
"O=C1c2cccc(F)c2CN1[C@@H]1CC[C@@]2(O)[C@H]3Cc4ccc(O)c5c4[C@@]2(CCN3CC2CC2)[C@H]1O5 [Compound 11, 2-(17-cyclopropylmethyl-4,5α-epoxy-3,14-dihydroxy-morphinan-6β-yl)-4-fluoro-2,3-dihydro-isoindole-1-one-methanesulfonic Acid Salt]",number of feces on average within 60 minutes from the beginning of restraint stress,"1 mg/kg subcutaneous 15 minutes before restraint stress, solvent group with stress 7.5",4.2
"O=C1c2ccccc2C(=O)N1[C@@H]1CC[C@@]2(O)[C@H]3Cc4ccc(O)c5c4[C@@]2(CCN3CC2CC2)[C@H]1O5 [Compound 1, N-(17-cyclopropylmethyl-4,5α-epoxy-3,14-dihydroxy-morphinan-6β-yl)-phthalimide]",number of feces on average within 60 minutes from the beginning of restraint stress,"0.15 mg/kg subcutaneous 15 minutes before restraint stress, solvent group with stress 6.5, without stress 1.0",1.0
same,activity to reduce the number of feces with respect to the solvent group,"0.15 mg/kg subcutaneous, restraint stress, result in words",statistically significant activity to reduce the number of feces was observed
"O=C1c2ccccc2S(=O)(=O)N1[C@@H]1CC[C@@]2(O)[C@H]3Cc4ccc(O)c5c4[C@@]2(CCN3CC2CC2)[C@H]1O5 [Compound 12, N-(17-cyclopropylmethyl-4,5α-epoxy-3,14-dihydroxy-morphinan-6β-yl)-O-sulfonbenzimide•tartaric Acid Salt]",number of feces on average within 60 minutes from the beginning of restraint stress,[1],3.7
"O=C1C2=C(CCCC2)C(=O)N1[C@@H]1CC[C@@]2(O)[C@H]3Cc4ccc(O)c5c4[C@@]2(CCN3CC2CC2)[C@H]1O5 [Compound 10, N-(17-cyclopropylmethyl-4,5α-epoxy-3,14-dihydroxy-morphinan-6β-yl)-3,4,5,6-tetrahydrophthalimide•tartaric Acid Salt]",number of feces on average within 60 minutes from the beginning of restraint stress,[1],0.3
"O=C1C=CC(=O)N1[C@@H]1CC[C@@]2(O)[C@H]3Cc4ccc(O)c5c4[C@@]2(CCN3CC2CC2)[C@H]1O5 [Compound 13, N-(17-cyclopropylmethyl-4,5α-epoxy-3,14-dihydroxy-morphinan-6β-yl)-maleimide•tartaric Acid Salt]",number of feces on average within 60 minutes from the beginning of restraint stress,"10 mg/kg subcutaneous 15 minutes before restraint stress, solvent group with stress 7.5",4.1
